Test results: the Deep4Chem optical property database

Test: photoluminescence quantum yield (fraction); solvent given as SMILES

Molecule `c12c3c4c5c1c1c6c7c2c2c8c3c3c9c4c4c%10c5c5c1c1c6c6c%11c%12c%13c%14c%15c%16c%17c%14c%14c%18c%13c%11c1c1c5c%10c5c(c%14c%10c%17c%11c%13c%16c%14c%16c%15c%12c%12c%16c(c2c7c%126)c2c8c3c(c%13c%142)c2c9c4c5c%10c%112)c%181` has a photoluminescence quantum yield (in CC1CCCCC1) of 0.0006.
`O=P1(c2ccccc2)C2=C(c3ccccc31)S(=O)(=O)c1ccccc12` (stereo unspecified) gave a photoluminescence quantum yield (in ClCCl) of 0.98.
Work on `CC(=O)Nc1ccc2c3cccc4cccc(c5cccc1c52)c43` yielded a photoluminescence quantum yield (in C1COCCO1) of 0.56, a photoluminescence quantum yield (in CC#N) of 0.45 and a photoluminescence quantum yield (in CCCCOCCCC) of 0.46. It also gave a photoluminescence quantum yield (in CCOC(C)=O) of 0.5.
Molecule `CC[C@H](C)[C@H](Nc1c(C(C)=O)c(=O)oc2cc(N(C)C)ccc12)C(=O)O` has a photoluminescence quantum yield (in ClCCl) of 0.0031.
In the case of `CCC1=C(C)C2=C(c3cc(C(=O)Cl)cc(C(=O)Cl)c3)c3c(C)c(CC)c(C)n3[B-](F)(F)[N+]2=C1C`, the photoluminescence quantum yield (in C1CCOC1) is reported as 0.61, the photoluminescence quantum yield (in CC#N) is reported as 0.22 and the photoluminescence quantum yield (in CN(C)C=O) is reported as 0.39. It also gave a photoluminescence quantum yield (in Cc1ccccc1) of 0.57 and a photoluminescence quantum yield (in ClC(Cl)Cl) of 0.53.
Molecule `CN(C)c1ccc2ccc3oc(=O)c(-c4ccccc4)nc3c2c1` has a photoluminescence quantum yield (in c1ccccc1) of 0.152.
Molecule `CCCCCCCCC1(CCCCCCCC)c2cc3c(cc2-c2sc(-c4ccc(/C=C5\SC(N6CCCCC6)=NC5=O)c5nsnc45)cc21)C(CCCCCCCC)(CCCCCCCC)c1cc(-c2ccc(/C=C4\SC(N5CCCCC5)=NC4=O)c4nsnc24)sc1-3` has a photoluminescence quantum yield (in C1CCOC1) of 0.14 and a photoluminescence quantum yield (in ClC(Cl)Cl) of 0.144.
With `CCOc1cc(C=C2c3ccccc3-c3ccccc32)c(OCC)cc1C=C1c2ccccc2C=Cc2ccccc21` the photoluminescence quantum yield (in C1CCOC1) was 0.00012.
With `Cc1cc(C)c2c(c1)nc1c(=O)n(C)c(=O)nc-1n2C` the photoluminescence quantum yield (in CC#N) was 0.18.
`C(#Cc1ccccc1)C(C#Cc1ccccc1)=Cc1ccc2cc(C=C(C#Cc3ccccc3)C#Cc3ccccc3)ccc2c1` gave a photoluminescence quantum yield (in ClC(Cl)Cl) of 0.49.
For `Cc1sc(Cl)cc1-c1nc(-c2ccc(Cl)cc2)[nH]c1-c1cc(Cl)sc1C`, the photoluminescence quantum yield (in CC#N) was 0.114.
For `COC(=O)[C@@]12N=N[C@@H](C3C[C@H]31)[C@@H]1C[C@@H]12` (stereo partly specified), the photoluminescence quantum yield (in CC#N) was 0.0066.
For `Oc1ccccc1-c1nc(-c2ccccc2)c(-c2ccccc2)[nH]1`, the photoluminescence quantum yield (in CO) was 0.25.
In the case of `CCn1c2ccccc2c2cc(/C=C/c3cc(/C=C/c4ccc5c(c4)c4ccccc4n5CC)ncn3)ccc21`, the photoluminescence quantum yield (in C1CCOC1) is reported as 0.25, the photoluminescence quantum yield (in CCOC(C)=O) is reported as 0.25 and the photoluminescence quantum yield (in CN(C)C=O) is reported as 0.42. For the same molecule, the photoluminescence quantum yield (in Cc1ccccc1) was 0.19 and the photoluminescence quantum yield (in ClCCl) was 0.29.
Molecule `CCOC(=O)c1cc(C(=O)O)nc2cc(OC)ccc12` has a photoluminescence quantum yield (in CCO) of 0.15.
`CNc1ncc2nc(C#N)n(Cc3ccccc3)c2n1` showed a photoluminescence quantum yield (in C1COCCO1) of 0.61, a photoluminescence quantum yield (in CC#N) of 0.58 and a photoluminescence quantum yield (in CO) of 0.49. It also gave a photoluminescence quantum yield (in ClCCl) of 0.58.
`CCCCC(CC)COc1cc(OCC(CC)CCCC)c2c#cc3ccc4oc5ccc(c#cc6cc(c#cc7ccc8oc9ccc(c#cc1c2)cc9c8c7)c(C(CCCC)OCCC)cc6C(CCCC)OCCC)cc5c4c3` (stereo unspecified) gave a photoluminescence quantum yield (in ClCCl) of 0.57.
Work on `CCCCCCCCOc1ccc(-c2c3c4n(c(-c5ccc(OCCCCCCCC)cc5)c3c3n2[B-](F)(F)[n+]2ccccc2N=3)[B-](F)(F)[n+]2ccccc2N=4)cc1` yielded a photoluminescence quantum yield (in ClC(Cl)Cl) of 0.89.
For `c1ccc2c(-c3ccc4sc5ccccc5c4c3)c3ccccc3cc2c1`, the photoluminescence quantum yield (in C1CCCCC1) was 0.52, the photoluminescence quantum yield (in CC#N) was 0.43 and the photoluminescence quantum yield (in ClCCl) was 0.7.
In the case of `O=c1oc2ccccc2c2c1c(=O)oc1c3ccccc3cc(O)c12`, the photoluminescence quantum yield (in ClCCl) is reported as 0.29.
`COc1ccc2c(-c3nc(-c4ccccc4Cl)no3)cc(=O)oc2c1` showed a photoluminescence quantum yield (in CCO) of 0.39 and a photoluminescence quantum yield (in ClC(Cl)Cl) of 0.19.
With `COc1ccc(C2=C(c3ccc(OC)cc3)c3cccc4c5c(cc(c34)O2)=NC2C=C(Br)C(Br)=CC2N=5)cc1` (stereo unspecified) the photoluminescence quantum yield (in ClCCl) was 0.28.
`Cc1ccc(-c2c3nc(c(-c4ccc(C)cc4)c4ccc([nH]4)c(-c4ccc(OC(=O)C(C)c5ccccc5)cc4)c4nc(c(-c5ccc(C)cc5)c5ccc2[nH]5)C=C4)C=C3)cc1` (stereo unspecified) gave a photoluminescence quantum yield (in ClCCl) of 0.123.
